Test results: patent US20130178493A1, “USE OF 14,15-DIHYDRO-20,21-DINOREBURNAMENIN-14-OL FOR THE TREATMENT AND/OR PREVENTION OF SERIOUS DEPRESSION AND SLEEP/WAKING CYCLE DISORDERS” (BIOCORTECH, priority 2004, published 2013)

Legend:
mice = conditions: mouse, in vivo, iv
Protocol: Acute toxicity is determined on batches of 10 male and female mice, weighing from 20 to 22 g, fasting since the previous evening.
The product is administered intravenously, in solution in physiological saline solution, to which a few drops of hydrochloric acid have been added (products to be tested are then in hydrochloric solution).
Mortality is recorded daily for one week. Values of the lethal doses 50 (LD 50) were determined using the method given by Lichfield J. T. and Wilcoxon F. (J. Pharm. Exp. Therap. 96:99, 1949).

Balb/c mice = test: REM sleep recovery after sleep deprivation (electroencephalogram records); assay type: in vivo
Protocol: (§1) The anatomical data presented in table 1 below were obtained three days after a single injection or after a sequential treatment of five injections at a rate of one injection every three days. Immunopositive cells for tyrosine hydroxylase (TH) and fibres containing noradrenaline were identified by immunocytochemistry in the examined brain areas. Sleep records were made on a group of ten Balb/c mice. The electroencephalogram for each animal was recorded continuously for five days for acquisition of basal data about the wake-sleep cycle. Five animals were then treated by five IP injections every three days starting from day 5 until day 17 of the experiment. The other five animals were injected with the excipient at the same time After the last injection, all mice were deprived of sleep for 6 hours and records went on for another two consecutive days to measure the total REM sleep recovery. The given BC19 dose is 20 mg/kg for each injection, in all these experiments.

[1] = test system: immunopositive neurones for TH in LC; test: Immunocytochemistry of tyrosine hydroxylase immunopositive neurones in locus caeruleus after IP injection; assay type: in vivo, Balb/c mice
Protocol: as §1

[2] = test system: cells expressing hypocretine in the hypothalamus; test: Number of hypocretine-expressing neurones in hypothalamus after IP injection; assay type: in vivo, Balb/c mice
[3] = test system: fibres containing noradrenaline in the prefrontal cortex; test: Density of noradrenaline-containing fibres in prefrontal cortex after sequential treatment; assay type: in vivo, Balb/c mice
Protocol: as §1

[4] = sacrifice 3 days after a single IP injection (20 mg/kg), Balb/c mice

OC1CC2CCCN3CCc4c(n1c1ccccc41)C23 (racemic) [BC19, 14,15-dihydro 20,21-dinoreburnamenin14-ol]
Acute toxicity (mortality, LD 50) (mice): did not demonstrate any toxicity
activity at 20 mg/kg (Balb/c mice; Mus musculus, deprived mice (6 hours sleep deprivation), after five IP injections every three days, 20 mg/kg, Balb/c mice, read-out: Duration of REM sleep during the recovery period, % of controls without sleep deprivation): 151 ± 11%
Duration of REM sleep during the recovery period (Balb/c mice; deprived mice (6 hours sleep deprivation), after five IP injections every three days, 20 mg/kg, Balb/c mice): 110 ± 8 mn
Effect on recovery of REM sleep after sleep privation (in words) (Balb/c mice; injected into Balb/c mice): reversing the inability of these consanguine mice to recover REM
activity at 20 mg/kg ([1]; Mus musculus, 72 h, sacrifice 3 days after a single IP injection (20 mg/kg), Balb/c mice, read-out: Total number of immunopositive neurones for TH in LC, % of controls): 135%
Effect on noradrenergic phenotype in locus caeruleus (in words) ([1]; injected into Balb/c mice): restoring the noradrenergic phenotype in a significant population of locus caeruleus
Total number of immunopositive neurones for TH in LC [1, 4]: 1228 ± 24
Effect on hypocretine phenotype in neurones of the hypothalamus (in words) ([2]; injected into Balb/c mice): restoring the hypocretine phenotype in a sub-population of neurones of the hypothalamus
Number of neurones in the posterior third of the group of cells expressing hypocretine in the hypothalamus [2, 4]: 671 ± 24
Number of neurones in the posterior third of the group of cells expressing hypocretine in the hypothalamus, % of controls [2, 4]: (121 ± 4%)
activity at 20 mg/kg ([3]; Mus musculus, 72 h, sequential treatment: five IP injections, one every three days, 20 mg/kg, Balb/c mice, read-out: Density of fibres containing noradrenaline in the prefrontal cortex, % of controls): 156%
Effect on noradrenergic innervation in the prefrontal cortex (in words) ([3]; injected into Balb/c mice): restoring noradrenergic innervation in the prefrontal cortex
Density of fibres containing noradrenaline in the prefrontal cortex ([3]; sequential treatment: five IP injections, one every three days, 20 mg/kg, Balb/c mice): 0.050 ± 0.003 μm/μm^2
